# Legend:
# [1] = tested on: genotype 1a H-77 replicon; assay: HCV-1a replicon potency in RLuc-1 cells, bioluminescence; format: cell-based; conditions: for HCV-1a Replicon Selectivity Index: CC50/EC50, genotype 1a replicon; for EC50: Hepatitis C virus, 72 h, read-out: HCV-1a Replicon EC50 (μM)
# [2] = Cytotoxicity in HCV-1a replicon cells, Promega CellTiter-Glo cell viability assay
SMILES,HCV-1a Replicon Selectivity Index [1],EC50 [1] [µM],CC50 at 72 h [2] [µM]
"Nc1nc(N2CCN(C(=O)COc3ccc(Cl)cc3)CC2)c2nc(C3CCCCC3)sc2n1 [Example 120, 5-amino-7-[4-(4-chlorophenoxyacetyl)piperazin-1-yl]-2-cyclohexylthiazolo[5,4-d]pyrimidine]",2.1,6.4,13.4
"Nc1nc(N2CCN(C(=O)COc3ccc(Cl)cc3)CC2)c2nc(C(c3ccc(F)cc3)C3CCCC3)sc2n1 (stereo not shown) [Example 151, 5-amino-2-[cyclopentyl-(4-fluorophenyl)methyl]-7-(4-[2-(4-chlorophenoxy)acetyl]piperazin-1-yl)thiazolo[5,4-d]pyrimidine]",2.1,14.7,31.2
"Cc1cccc(NC(=O)N2CCN(c3nc(N)nc4sc(CCc5ccc(F)cc5)nc34)CC2)c1 [Example 133, 5-amino-2-[2-(4-fluorophenyl)ethyl]-7-(4-m-tolylcarbamoylpiperazin-1-yl)-thiazolo[5,4-d]pyrimidine]",1.5,10.7,15.8
"Nc1nc(N2CCN(C(=O)COc3ccc(Cl)cc3)CC2)c2nc(CCc3cccs3)sc2n1 [Example 154, 5-amino-2-(2-thiophen-2-ylethyl)-7-(4-[2-(4-chloro-phenoxy)acetyl]piperazin-1-yl)thiazolo[5,4-d]pyrimidine]",–,> 44.4,> 44.4
"Nc1nc(N2CCN(C(=O)COc3ccc(Cl)cc3)CC2)c2nc(Cc3ccc(Cl)cc3)sc2n1 [Example 122, 5-amino-7-[4-(4-chlorophenoxyacetyl)piperazin-1-yl]-2-(4-chlorophenylmethyl)thiazolo[5,4-d]pyrimidine]",5.8,4.7,26.8
"CC(C)(C)c1nc2c(N3CCN(C(=O)COc4ccc(Cl)cc4)CC3)nc(N)nc2[nH]1 [Example 399, 1-(4-(2-amino-8-tert-butyl-9H-purin-6-yl)piperazin-1-yl)-2-(4-chlorophenoxy)ethanone]",1.2,24.7,29.1
"Nc1nc(N2CCN(CC(=O)Nc3cccnc3)CC2)c2nc(-c3ccc(F)cc3)[nH]c2n1 [Example 412, 2-(4-(2-amino-8-(4-fluorophenyl)-9H-purin-6-yl)piperazin-1-yl)-N-(pyridin-3-yl)acetamide]",>111,0.4,> 44.4
"Nc1nc(N2CCN(C(=O)COc3ccc(Cl)cc3)CC2)c2nc(C3(c4ccc(Cl)cc4)CC3)sc2n1 [Example 117, 5-amino-7-[4-(4-chlorophenoxyacetyl)piperazin-1-yl]-2-(1-(4-chlorophenyl)cyclopropyl)thiazolo[5,4-d]pyrimidine]",1.3,17.7,23.3
"COc1ccc(-c2nc3c(N4CCN(C(=O)COc5ccc(Cl)cc5)CC4)nc(N)nc3[nH]2)cc1OC [Example 390, 1-(4-(2-amino-8-(3,4-dimethoxyphenyl)-9H-purin-6-yl)piperazin-1-yl)-2-(4-chlorophenoxy)ethanone]",9.9,1.7,17.3
"Nc1nc(N2CCN(C(=O)COc3ccc(Cl)cc3)CC2)c2nc(CCc3ccccc3)sc2n1 [Example 118, 5-amino-7-[4-(4-chlorophenoxyacetyl)piperazin-1-yl]-2-(2-phenylethyl)thiazolo[5,4-d]pyrimidine]",8.4,3.6,30.3
"Nc1nc(NC2CCCN(C(=O)OCc3ccccc3)C2)c2nc(CCc3ccc(F)cc3)sc2n1 (stereo not shown) [Example 145, 5-amino-2-[2-(4-fluorophenyl)ethyl]-7-(1-benzyloxycarbonylpiperidin-3-ylamino)-thiazolo[5,4-d]pyrimidine]",2.1,13.1,27.6
"Nc1nc(N2CCN(C(=O)COc3ccc(Cl)cc3)CC2)c2nc(SCCc3ccccc3)[nH]c2n1 [Example 427, 1-(4-(2-amino-8-(phenethylthio)-9H-purin-6-yl)piperazin-1-yl)-2-(4-chlorophenoxy)ethanone]",1.1,5.2,5.8
"Nc1nc(N2CCN(S(=O)(=O)Cc3ccccc3)CC2)c2nc(CCc3ccc(F)cc3)sc2n1 [Example 137, 5-amino-2-[2-(4-fluorophenyl)ethyl]-7-[4-phenylmethanesulfonylpiperazin-1-yl]-thiazolo[5,4-d]pyrimidine]",0.8,26.9,21.8
"Nc1nc(N2CCN(C(=O)COc3ccccc3)CC2)c2cc(-c3ccccc3)sc2n1 [Example 332, 1-(4-(2-amino-6-phenylthieno[2,3-d]pyrimidin-4-yl)piperazin-1-yl)-2-phenoxyethanone]",0.9,> 44.4,38.5
"Nc1nc(N2CCN(C(=O)COc3ccc(Cl)cc3)CC2)c2cc(-c3ccccc3)sc2n1 [Example 329, 1-(4-(2-amino-6-phenylthieno[2,3-d]pyrimidin-4-yl)piperazin-1-yl)-2-(4-chlorophenoxy)ethanone]",3.8,11.8,> 44.4
"Nc1nc(N2CCN(C(=O)CCc3ccccc3)CC2)c2nc(-c3ccc(F)cc3)[nH]c2n1 [Example 438, 1-(4-(2-amino-8-(4-fluorophenyl)-9H-purin-6-yl)piperazin-1-yl)-3-phenylpropan-1-one]",0.6,10.3,6.1
"Nc1nc(N2CCN(C(=O)COc3ccccc3)CC2)c2nc(CCc3ccc(F)cc3)sc2n1 [Example 134, 5-amino-2-[2-(4-fluorophenyl)ethyl]-7-(4-[2-phenoxyacetyl]piperazin-1-yl)-thiazolo[5,4-d]pyrimidine]",–,> 44.4,> 44.4
"Nc1nc(N2CCCN(C(=O)COc3ccc(Cl)cc3)CC2)c2nc(-c3ccc(F)cc3)[nH]c2n1 [Example 421, 1-(4-(2-amino-8-(4-fluorophenyl)-9H-purin-6-yl)-1,4-diazepan-1-yl)-2-(4-chlorophenoxy)ethanone]",1.9,12.7,23.8
"Nc1nc(N2CCN(CC(=O)NCCc3ccccc3)CC2)c2nc(CCc3ccc(F)cc3)sc2n1 [Example 141, 5-amino-2-[2-(4-fluorophenyl)ethyl]-7-(4-(phenethylcarbamoyl-methyl)piperazin-1-yl)-thiazolo[5,4-d]pyrimidine]",1.0,15.8,16
"Nc1nc(N[C@H]2CCN(C(=O)COc3ccc(Cl)cc3)C2)c2nc(CCc3ccc(F)cc3)sc2n1 [Example 147, 5-amino-2-[2-(4-fluorophenyl)ethyl]-7-(1-(4-chlorophenoxyacetyl)pyrrolidin-3-(S)-ylamino)-thiazolo[5,4-d]pyrimidine]",0.5,31,15.5
"Nc1nc(N2CCN(C(=O)Nc3ccc(Cl)cc3)CC2)c2cc(-c3ccccc3)sc2n1 [Example 331, 4-(2-amino-6-phenylthieno[2,3-d]pyrimidin-4-yl)-N-(4-chlorophenyl)piperazine-1-carboxamide]",1.8,18.7,34.3
